{"source": "patent US20240374628A1", "about": "(Whispergenics. Inc., priority 2021, published 2024)", "key": {"BIRC5 expression": {"system": "BIRC5 expression", "experiment": "Cardiac glycosides that inhibit BIRC5 expression in colorectal cancer", "type": "cell-based"}, "HT29": {"system": "HT29", "experiment": "CellTiter-Glo cell viability, HT29", "type": "cell-based, human", "conditions": "48 h, dose curve 12.5 nM-800 nM, FIG. 1", "protocol": "(§1) Cell lines: Human colon cancer cell lines CCD-18Co and Caco2 (American Type Culture Collection [ATCC], Bethesda, MD) were maintained in Eagle's Minimum Essential Medium (Thermo Fisher Scientific, MA) supplemented with 100,000 U/L of penicillin, 100,000 μg/L of streptomycin, and 20% fetal bovine serum (FBS). HT29 (American Type Culture Collection [ATCC], Bethesda, MD) was maintained in McCoy's 5a Medium Modified (Thermo Fisher Scientific, MA) supplemented with 100,000 U/L of penicillin, 100,000 μg/L of streptomycin, and 10% fetal bovine serum (FBS). The following cells were also tested: MDA 231 Breast Cancer Cells, U87 Glioblastoma Cells, U251 Glioblastoma Cells and Dul45 Prostate Cancer Cells. All cells were maintained in Eagles Medium as described above.\n(§2) The cells were subjected to cell viability assays using The CellTiter-Glo luminescent cell viability kit (Promega, catalog number: G7570). luminescence was measured using microplate luminometer (luminoskan™ ascent, Thermo-Fisher Scientific, MA). Background luminescence was measured in medium without cells and subtracted from experimental values."}, "[1]": {"system": "human colon cancer cell lines (CCD-18Co, Caco2, HT29)", "experiment": "CellTiter-Glo cell viability, three human colon cancer cell lines", "type": "cell-based", "conditions": "dose-response curves, 48 h, FIGS. 1-3", "protocol": "as §1, with “The following cells were also tested: MDA 231 Breast Cancer Cells, U87 Glioblastoma Cells, U251 Glioblastoma Cells and Dul45 Prostate Cancer Cells.” left out\nas §2"}, "Caco2": {"system": "Caco2", "experiment": "CellTiter-Glo cell viability, Caco2", "type": "cell-based, human", "conditions": "48 h, dose curve 625 μM-40000 μM, FIG. 3", "protocol": "as §1, §2"}}, "data": [{"smiles": "C[C@]12CC[C@H](O)C[C@H]1CC[C@@H]1[C@@H]2CC[C@]2(C)[C@@H](c3ccc(=O)oc3)CC[C@]12O", "note": "[bufalin]", "values": [{"measurement": "inhibition of BIRC5 expression", "setting": "BIRC5 expression", "result": "inhibit BIRC5 expression"}]}, {"smiles": "C[C@H]1O[C@@H](O[C@H]2[C@@H](O)C[C@H](O[C@H]3[C@@H](O)C[C@H](O[C@H]4CC[C@@]5(C)[C@H](CC[C@@H]6[C@@H]5C[C@@H](O)[C@]5(C)[C@@H](C7=CC(=O)OC7)CC[C@]65O)C4)O[C@@H]3C)O[C@@H]2C)C[C@H](O)[C@@H]1O", "note": "[Digoxin]", "values": [{"measurement": "inhibition of BIRC5 expression", "setting": "BIRC5 expression", "result": "inhibit BIRC5 expression"}, {"measurement": "sensitivity of cell viability", "setting": "HT29", "result": "very sensitive"}, {"measurement": "cell viability, single drug alone", "setting": "[1]", "result": "reduced cell viability to varying degrees"}]}, {"smiles": "CN(C)C(=N)N=C(N)N", "note": "[Metformin]", "values": [{"measurement": "sensitivity of cell viability", "setting": "Caco2", "result": "sensitive"}, {"measurement": "cell viability, single drug alone", "setting": "[1]", "result": "reduced cell viability to varying degrees"}]}, {"smiles": "CC(=O)O[C@H]1C[C@H](O[C@H]2[C@@H](O)C[C@H](O[C@H]3[C@@H](O)C[C@H](O[C@H]4CC[C@@]5(C)[C@H](CC[C@@H]6[C@@H]5C[C@@H](O)[C@]5(C)[C@@H](C7=CC(=O)OC7)CC[C@]65O)C4)O[C@@H]3C)O[C@@H]2C)O[C@H](C)[C@H]1O[C@@H]1O[C@H](CO)[C@@H](O)[C@H](O)[C@H]1O", "note": "[Lanatoside C]", "values": [{"measurement": "inhibition of BIRC5 expression", "setting": "BIRC5 expression", "result": "inhibit BIRC5 expression"}]}, {"smiles": "C[C@]12CC[C@H](O)C[C@H]1CC[C@@H]1[C@@H]2CC[C@]2(C)[C@@H](C3=CC(=O)OC3)CC[C@]12O", "note": "[Digitoxigenin]", "values": [{"measurement": "inhibition of BIRC5 expression", "setting": "BIRC5 expression", "result": "inhibit BIRC5 expression"}]}, {"smiles": "C[C@@H]1O[C@@H](O[C@H]2C[C@@H](O)[C@]3(CO)[C@H]4[C@H](O)C[C@]5(C)[C@@H](C6=CC(=O)OC6)CC[C@]5(O)[C@@H]4CC[C@]3(O)C2)[C@H](O)[C@H](O)[C@H]1O", "note": "[Ouabain]", "values": [{"measurement": "inhibition of BIRC5 expression", "setting": "BIRC5 expression", "result": "inhibit BIRC5 expression"}]}]}
